Reference: patent publication US10710951B2, “Pharmaceutical composition containing verbenone derivative for treating or preventing neurodegenerative disease” (KOREA UNIVERSITY RESEARCH AND BUSINESS FOUNDATION, priority 2012, dated 2020)

Key:
[1] = Oxygen radical absorbance capacity (ORAC) assay; parameters: ORAC assay TE25 (trolox equivalents): dose or concentration left out as unconfirmed
Protocol: An ORAC assay was performed as disclosed in the literature (Huang, D. et al., J. Agric. Food Chem., 53, 1841-56, 2005).
AAPH (60 mM) and fluorescein (50 nM) were prepared in buffer (75 mM phosphate buffer, pH7.4) without a sample or a sample or a standard (Trolox). Each of the samples and the standard was suspended in a solution of 7% RMCD (randomly methylated beta-cyclodextrin) in 50% acetone. RMCD was used to increase the solubility of oil-soluble samples. Each sample was sufficiently mixed with fluorescein solution (66 nM, 190 μl) by shaking for 5 seconds. After incubation at 37° C. for 10 minutes, AAPH (500 mM, 30 μl) was quickly added to each sample, and a decrease in the fluorescence was measured using a fluorescence microplate reader (Ex=485 nm, Em=530 nm; SpectraMax GeminiEM, Molecular Devices, Sunnyvale, Calif.) at 37° C. at 5-min intervals for 9 hours. To quantify the activity of scavenging peroxyl radicals, AUC (area-under-the-curve) was calculated according to the following equation 2, and net AUC was calculated according to the following equation 3, and the TE (trolox equivalents) of each sample was calculated according to the following equation 4 based on a standard curve of net AUC plotted according to an increase in trolox concentration. AUC=(0.5+f1/f0+f2/f0+f3/f0+ . . . +fn−2/f0+fn−1/f0+fn/f0)×5, Equation 2
wherein f0 is the first fluorescence at 0 min and time I. Net AUC=AUCsample−AUCblank. Equation 3 TE(trolox equivalents) of each sample=[netAUCsample […]]/[net AUCtrolox […]]. Equation 4
The antioxidant activities of the verbenone derivatives of the present invention were measured by the following two different chemical reactions: (1) a single electron transfer-based assay that is a […] [DPPH] assay that measures a decrease in DPPH acting as a free radical generator and a termination probe; and (2) a hydrogen atom transfer assay that is an oxygen radical absorbance capacity [[…]] assay that measures the competitive reaction kinetics of a peroxyl radical generator (AAPH; 2,2′-azobis-(2-methylpropionamide)-dihydrochloride) and each sample acting as an antioxidant for oxidizable fluorescent probe (fluorescein).

[2] = system: focal cerebral ischemia (MCAO) rats; assay: Focal cerebral ischemia model (MCAO); format: in vivo, SD rats; settings: transient ischemia rat; 50 mg/kg intraperitoneal, twice (2 hours and 7 hours after brain infarction); FIG. 4
Protocol: Rats were anesthetized with 3.0% isoflurane in N2O and O2 (70:30 v/v) mixture via facemask and were maintained in 2% isoflurane. Throughout the experimental period, the body temperature was controlled and kept to 37° C.±0.3° C. using a rectal thermometer and a heating pad until the animals were sufficiently recovered from anesthesia after surgery. Focal cerebral ischemia was achieved by right-sided endovascular MCAO. Briefly, a 3-0 heat-blunted monofilament nylon suture (Ethicon Johnson & Johnson, Brussels, Belgium) were inserted into the lumen of the right external carotid artery stump and advanced 17.5 mm into the internal carotid artery to occlude the ostium of the MCA. The suture was removed after 1.5 hours to allow animals to recover. Operated controls were subjected to the same surgical procedures, except for MCAO. Physiological values were measured 15 minutes before MCAO and at 15 minutes after reperfusion, and mean blood pressure was monitored for 5 minutes using a blood pressure analyzer (MicroMed, Lousville, Ky.), and glucose were monitored using an analyzer (Ciba Corning Diagnostics Corp., Medfield, Mass.). […]
Rats were anesthetized with 3.5% chloral hydrate (5 ml/kg, intraperitoneal injection) and decapitated. […] The cross-sectional area of infarction between the bregma levels of +4 mm (anterior) and −6 mm (posterior) were determined with analysis software (OPTIMAS5.1 image analysis program, BioScanInc. Edmonds, Wash.). Brain infarct size was measured manually by outlining the margins of infarct areas. The total infarction volume (mm^3) was calculated according to the following equation 5 as disclosed in a document (J Neurosci Methods (1998) 84:9-16; J Cereb Blood Flow Metab (1990) 10:290-293), and compensated for brain edema. Cerebral edema was determined by the percent increase of the ipsilateral/contralateral hemisphere area as shown in the following equation 6. […]

Question: With `COc1cc(C=CC2=CC(=O)[C@H]3C[C@@H]2C3(C)C)cc(O)c1O` [Compound 3f, (1S,5R)-4-(3,4-dihydroxy-5-methoxystyryl)-6,6-dimethylbicyclo[3.1.1]hept-3-en-2-one] as the compound, how does the “ORAC assay Net AUC” value [1] read?
Answer: Its value is 99.06 ± 37.80.

Question: What about the “ORAC assay TE25 (trolox equivalents)” value ([1]; net AUC sample / net AUC trolox) of the same compound?
Answer: The value was 2.83 ± 0.22.

Question: And the cerebral edema [2]?
Answer: The cerebral edema was “significantly reduced”.

Question: What about the ischemic injury [2] of the same compound?
Answer: Its ischemic injury is “significantly reduced”.

Question: What about the neurological deficit [2] of the same compound?
Answer: Its neurological deficit is “significantly reduced”.
